# Test results as given in US20240382629A1, “HETEROBIVALENT AND HOMOBIVALENT AGENTS TARGETING FIBROBLAST ACTIVATION PROTEIN ALPHA AND/OR PROSTATE-SPECIFIC MEMBRANE ANTIGEN” (The Johns Hopkins University, priority 2021, published 2024).
# Test system: U87 tumor
# Test: Biodistribution ([^18F]JHU1221823), carrier / specific activity study
# Assay type: in vivo, mouse
# Excerpt: Biodistribution of Representative Compounds
# [1] = mean (one mouse), NOD/SCID, U87 tumor, Carrier 700, 60 min post injection
# [2] = mean, + 0.05 nmole carrier, 60 min post injection
# [3] = mean, + 0.1 nmole carrier, 60 min post injection
# [4] = mean, + 0.25 nmole carrier, 60 min post injection
# [5] = mean, NOD/SCID, U87 tumor, Carrier 350 (350 mCi/μmol), 60 min post injection
structure (smiles),measurement,setting,value
N#C[C@@H]1CCCN1C(=O)CNC(=O)c1ccnc2ccc(OCCCNC(=O)CCOCCOCCOCCOCCNC(=O)[C@H](CCCCNC(=O)c3ccc([18F])nc3)NC(=O)CN3CCN(CC(=O)O)CCN(CC(=O)O)CCN(CC(=O)O)CC3)cc12 [[^18F]JHU1221823],Bladder % ID/g,[1],8.20 % ID/g
same,Blood % ID/g,[1],5.82 % ID/g
same,Brain % ID/g,[1],0.16 % ID/g
same,Fat % ID/g,[1],0.90 % ID/g
same,Femur % ID/g,[1],2.41 % ID/g
same,Heart % ID/g,[1],3.48 % ID/g
same,Kidney % ID/g,[1],2.45 % ID/g
same,Large intestine % ID/g,[1],2.26 % ID/g
same,Liver % ID/g,[1],2.36 % ID/g
same,Lung % ID/g,[1],3.56 % ID/g
same,Muscle % ID/g,[1],1.99 % ID/g
same,Pancreas % ID/g,[1],13.03 % ID/g
same,Salivary gland % ID/g,[1],11.31 % ID/g
same,Small intestine % ID/g,[1],3.48 % ID/g
same,Spleen % ID/g,[1],1.46 % ID/g
same,Stomach % ID/g,[1],1.64 % ID/g
same,Tumor % ID/g,[1],7.79 % ID/g
same,Bladder % ID/g,"mean, + 0.01 nmole carrier",2.00 % ID/g
same,Blood % ID/g,"mean, + 0.01 nmole carrier",11.29 % ID/g
same,Brain % ID/g,"mean, + 0.01 nmole carrier",0.30 % ID/g
same,Fat % ID/g,"mean, + 0.01 nmole carrier",0.34 % ID/g
same,Femur % ID/g,"mean, + 0.01 nmole carrier",3.53 % ID/g
same,Heart % ID/g,"mean, + 0.01 nmole carrier",4.62 % ID/g
same,Kidney % ID/g,"mean, + 0.01 nmole carrier",2.96 % ID/g
same,Large intestine % ID/g,"mean, + 0.01 nmole carrier",1.62 % ID/g
same,Liver % ID/g,"mean, + 0.01 nmole carrier",3.09 % ID/g
same,Lung % ID/g,"mean, + 0.01 nmole carrier",6.15 % ID/g
same,Muscle % ID/g,"mean, + 0.01 nmole carrier",1.88 % ID/g
same,Pancreas % ID/g,"mean, + 0.01 nmole carrier",4.07 % ID/g
same,Salivary gland % ID/g,"mean, + 0.01 nmole carrier",7.47 % ID/g
same,Small intestine % ID/g,"mean, + 0.01 nmole carrier",2.20 % ID/g
same,Spleen % ID/g,"mean, + 0.01 nmole carrier",2.01 % ID/g
same,Stomach % ID/g,"mean, + 0.01 nmole carrier",1.49 % ID/g
same,Tumor % ID/g,"mean, + 0.01 nmole carrier",2.37 % ID/g
same,Bladder % ID/g,[2],4.29 % ID/g
same,Blood % ID/g,[2],7.55 % ID/g
same,Brain % ID/g,[2],0.21 % ID/g
same,Fat % ID/g,[2],0.78 % ID/g
same,Femur % ID/g,[2],3.25 % ID/g
same,Heart % ID/g,[2],3.03 % ID/g
same,Kidney % ID/g,[2],2.29 % ID/g
same,Large intestine % ID/g,[2],1.53 % ID/g
same,Liver % ID/g,[2],2.13 % ID/g
same,Lung % ID/g,[2],4.10 % ID/g
same,Muscle % ID/g,[2],1.83 % ID/g
same,Pancreas % ID/g,[2],5.35 % ID/g
same,Salivary gland % ID/g,[2],10.93 % ID/g
same,Small intestine % ID/g,[2],1.82 % ID/g
same,Spleen % ID/g,[2],1.50 % ID/g
same,Stomach % ID/g,[2],1.27 % ID/g
same,Tumor % ID/g,[2],3.42 % ID/g
same,Bladder % ID/g,[3],1.75 % ID/g
same,Blood % ID/g,[3],4.10 % ID/g
same,Brain % ID/g,[3],0.12 % ID/g
same,Fat % ID/g,[3],1.65 % ID/g
same,Femur % ID/g,[3],3.72 % ID/g
same,Heart % ID/g,[3],1.84 % ID/g
same,Kidney % ID/g,[3],2.01 % ID/g
same,Large intestine % ID/g,[3],2.35 % ID/g
same,Liver % ID/g,[3],1.16 % ID/g
same,Lung % ID/g,[3],2.57 % ID/g
same,Muscle % ID/g,[3],1.97 % ID/g
same,Pancreas % ID/g,[3],4.67 % ID/g
same,Salivary gland % ID/g,[3],8.31 % ID/g
same,Small intestine % ID/g,[3],1.64 % ID/g
same,Spleen % ID/g,[3],0.96 % ID/g
same,Stomach % ID/g,[3],1.00 % ID/g
same,Tumor % ID/g,[3],5.08 % ID/g
same,Bladder % ID/g,[4],2.51 % ID/g
same,Blood % ID/g,[4],1.90 % ID/g
same,Brain % ID/g,[4],0.08 % ID/g
same,Fat % ID/g,[4],0.51 % ID/g
same,Femur % ID/g,[4],4.26 % ID/g
same,Heart % ID/g,[4],0.91 % ID/g
same,Kidney % ID/g,[4],1.92 % ID/g
same,Large intestine % ID/g,[4],0.65 % ID/g
same,Liver % ID/g,[4],0.75 % ID/g
same,Lung % ID/g,[4],1.37 % ID/g
same,Muscle % ID/g,[4],1.25 % ID/g
same,Pancreas % ID/g,[4],1.77 % ID/g
same,Salivary gland % ID/g,[4],3.31 % ID/g
same,Small intestine % ID/g,[4],0.91 % ID/g
same,Spleen % ID/g,[4],0.46 % ID/g
same,Stomach % ID/g,[4],0.69 % ID/g
same,Tumor % ID/g,[4],3.52 % ID/g
same,Bladder % ID/g,[5],4.33 % ID/g
same,Blood % ID/g,[5],4.14 % ID/g
same,Brain % ID/g,[5],0.09 % ID/g
same,Fat % ID/g,[5],0.85 % ID/g
same,Femur % ID/g,[5],3.43 % ID/g
same,Heart % ID/g,[5],2.14 % ID/g
same,Kidney % ID/g,[5],2.13 % ID/g
same,Large intestine % ID/g,[5],2.08 % ID/g
